Assay results: the NIST ThermoML archive (doi:10.1016/j.jct.2015.05.005)
± gives the expanded uncertainty stated by the source.

Conditions: Liquid mixture 1, Pendant drop shape

**Q.** Which interfacial tension (298.4 K, 6830 kPa) does the source give for O=C=O [carbon dioxide] + O here?
**A.** Its interfacial tension is 31 ± 0.49 mN/m.

**Q.** What about the interfacial tension (298.5 K, 7200 kPa) of the same molecule?
**A.** The interfacial tension was 30.99 ± 0.4 mN/m.

**Q.** What about the interfacial tension (298.5 K, 8100 kPa) of the same molecule?
**A.** The interfacial tension was 31.09 ± 0.33 mN/m.

**Q.** And the interfacial tension (298.6 K, 6490 kPa)?
**A.** Its interfacial tension is 30.79 ± 1.9 mN/m.

**Q.** What about the interfacial tension (298.6 K, 8970 kPa) of the same molecule?
**A.** Its interfacial tension is 30.98 ± 0.34 mN/m.

**Q.** What about the interfacial tension (298.6 K, 10630 kPa) of the same molecule?
**A.** Its interfacial tension is 30.73 ± 0.34 mN/m.

**Q.** And the interfacial tension (298.6 K, 13180 kPa)?
**A.** Its interfacial tension is 30.62 ± 0.37 mN/m.

**Q.** And the interfacial tension (298.6 K, 15150 kPa)?
**A.** The interfacial tension was 30.81 ± 0.42 mN/m.

**Q.** And the interfacial tension (298.6 K, 20830 kPa)?
**A.** Its interfacial tension is 29.84 ± 0.49 mN/m.
